Test [1] concerns the target PIM1 (Homo sapiens, UniProt P11309). As to the kind of experiment: Pim1 ATP depletion assay. Type of test: biochemical. As to conditions: 20 μM ATP, 2.5 nM PIM1. The protocol:
The activity of PIM1 is measured using a luciferase-luciferin based ATP detection reagent to quantify ATP depletion resulting from kinase-catalyzed phosphoryl transfer to a peptide substrate. Compounds to be tested are dissolved in 100% DMSO and directly distributed into white 384-well plates at 0.5 μl per well. To start the reaction, 10 μl of 5 nM Pim1 kinase and 80 μM BAD peptide (RSRHSSYPAGT-OH) in assay buffer (50 mM HEPES pH 7.5, 5 mM MgCl2, 1 mM DTT, 0.05% BSA) is added into each well. After 15 minutes, 10 μl of 40 μM ATP in assay buffer is added. Final assay concentrations are 2.5 nM PIM1, 20 μM ATP, 40 μM BAD peptide and 2.5% DMSO. The reaction is performed until approximately 50% of the ATP is depleted, then stopped with the addition of 20 μl KinaseGlo Plus (Promega Corporation) solution. The stopped reaction is incubated for 10 minutes and the remaining ATP detected via luminescence on the Victor2 (Perkin Elmer). […] IC50, the half maximal inhibitory concentration, represents the concentration of a test compound that is required for 50% inhibition of its target in vitro.

In test [2] the target is PIM2 (Homo sapiens, UniProt Q9P1W9). As to the kind of experiment: Pim2 ATP depletion assay. As to conditions: 4 μM ATP, 5 nM PIM2. Type of test: biochemical. The protocol: The activity of PIM2 is measured using a luciferase-luciferin based ATP detection reagent to quantify ATP depletion resulting from kinase-catalyzed phosphoryl transfer to a peptide substrate. Compounds to be tested are dissolved in 100% DMSO and directly distributed into white 384-well plates at 0.5 μl per well. To start the reaction, 10 μl of 10 nM Pim2 kinase and 20 μM BAD peptide (RSRHSSYPAGT-OH) in assay buffer (50 mM HEPES pH 7.5, 5 mM MgCl2, 1 mM DTT, 0.05% BSA) is added into each well. After 15 minutes, 10 μl of 8 μM ATP in assay buffer is added. Final assay concentrations are 5 nM PIM2, 4 μM ATP, 10 μM BAD peptide and 2.5% DMSO. The reaction is performed until approximately 50% of the ATP is depleted, then stopped with the addition of 20 μl KinaseGlo Plus (Promega Corporation) solution. The stopped reaction is incubated for 10 minutes and the remaining ATP detected via luminescence on the Victor2 (Perkin Elmer).
PIM2, sequence (Q9P1W9 whole entry): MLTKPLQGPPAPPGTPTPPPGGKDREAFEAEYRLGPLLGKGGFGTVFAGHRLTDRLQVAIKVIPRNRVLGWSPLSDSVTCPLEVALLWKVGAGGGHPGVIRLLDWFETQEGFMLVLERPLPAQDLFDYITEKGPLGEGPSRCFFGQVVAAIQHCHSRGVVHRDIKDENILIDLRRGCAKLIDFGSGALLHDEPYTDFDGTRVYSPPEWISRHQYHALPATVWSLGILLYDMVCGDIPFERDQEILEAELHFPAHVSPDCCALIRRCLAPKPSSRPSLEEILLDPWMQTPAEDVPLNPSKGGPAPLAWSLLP

Test [3] relates to KMS11 cells. Put plainly: Cell proliferation assay (CellTiter-Glo). The test is classed as cell-based. Conditions: KMS-11, 72 h; KMS11 human myeloma cell line, 3 days. The method, then: KMS11 (human myeloma cell line), were cultured in IMDM supplemented with 10% FBS, sodium pyruvate and antibiotics. Cells were plated in the same medium at a density of 2000 cells per well into 96 well tissue culture plates, with outside wells vacant, on the day of assay. MM1.s (human myeloma cell line), were cultured in RPMI1640 supplemented with 10% FBS, sodium pyruvate and antibiotics. Cells were plated in the same medium at a density of 5000 cells per well into 96 well tissue culture plates, with outside wells vacant, on the day of assay.
Test compounds supplied in DMSO were diluted into DMSO at 500 times the desired final concentrations before dilution into culture media to 2 times final concentrations. Equal volumes of 2× compounds were added to the cells in 96 well plates and incubated at 37° C. for 3 days.
After 3 days plates were equilibrated to room temperature and equal volume of CellTiter-Glow Reagent (Promega) was added to the culture wells. The plates were agitated briefly and luminescent signal was measured with luminometer. The percent inhibition of the signal seen in cells treated with DMSO alone vs. cells treated with control compound was calculated and used to determine EC50 values (i.e., the concentration of a test compound that is required to obtain 50% of the maximum effect in the cells) for tested compounds, as shown in Example 41.

Test [4] has as its target PIM3 (Homo sapiens, UniProt Q86V86). As to the kind of experiment: Pim3 ATP depletion assay. As to conditions: 40 μM ATP. The test is classed as biochemical. The method, then: The activity of PIM3 is measured using a luciferase-luciferin based ATP detection reagent to quantify ATP depletion resulting from kinase-catalyzed phosphoryl transfer to a peptide substrate. Compounds to be tested are dissolved in 100% DMSO and directly distributed into white 384-well plates at 0.5 μl per well. To start the reaction, 10 μl of 10 nM Pim3 kinase and 200 μM BAD peptide (RSRHSSYPAGT-OH) in assay buffer (50 mM HEPES pH 7.5, 5 mM MgCl2, 1 mM DTT, 0.05% BSA) is added into each well. After 15 minutes, 10 μl of 80 μM ATP in assay buffer is added. Final assay concentrations are 5 nM PIM1, 40 μM ATP, 100 μM BAD peptide and 2.5% DMSO. The reaction is performed until approximately 50% of the ATP is depleted, then stopped by the addition of 20 μl KinaseGlo Plus (Promega Corporation) solution. The stopped reaction is incubated for 10 minutes and the remaining ATP detected via luminescence on the Victor2 (Perkin Elmer).

The structures appear in SMILES notation.

These results are taken from patent US8735424B2 (Novartis AG, priority 2008, dated 2014).

A word on the IC50: it is the concentration needed to halve the response being measured. Higher therefore signals weaker potency in that assay. What is called EC50 is the concentration needed to bring the measured effect to its halfway point. High values mean lower potency in that assay, low ones higher potency in that assay.

PIM1, sequence (P11309 whole entry): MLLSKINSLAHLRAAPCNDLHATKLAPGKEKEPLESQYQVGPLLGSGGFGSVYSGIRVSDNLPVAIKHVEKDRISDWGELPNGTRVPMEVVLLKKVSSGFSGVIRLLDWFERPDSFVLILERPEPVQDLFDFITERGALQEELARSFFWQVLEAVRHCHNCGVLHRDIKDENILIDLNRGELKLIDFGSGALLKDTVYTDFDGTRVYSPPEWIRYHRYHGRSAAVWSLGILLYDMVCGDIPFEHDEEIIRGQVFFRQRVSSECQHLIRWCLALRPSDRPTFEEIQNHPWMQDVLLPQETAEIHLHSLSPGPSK

On to `CC(C)NC(=O)c1ccc(F)c(-c2ccc(N)c(-c3cc4c(N5CCC[C@@H](N)C5)ccnc4cn3)n2)c1` [Example 8, (R)-3-(5-amino-6-(4-(3-aminopiperidin-1-yl)-1,7-naphthyridin-6-yl)pyridin-2-yl)-4-fluoro-N-isopropylbenzamide], for which the IC50 in test [1] amounted to 16 nM; in test [2], 81 nM; in test [4], 21 nM. Further, it took 4500 nM to reach a half-maximal effect in test [3] (EC50).
Regarding `Nc1ccc(-c2c(F)cccc2F)nc1-c1cc2c(N3CCC[C@H](N)C3)ccnc2cn1` [Example 9, (S)-2-(4-(3-aminopiperidin-1-yl)-1,7-naphthyridin-6-yl)-6-(2,6-difluorophenyl)pyridin-3-amine], the IC50 is 1 nM in test [1], 40 nM in test [2] and 6 nM in test [4]. Also, the EC50 in test [3] came to 3700 nM.
Take `CC(C)NC(=O)c1ccc(F)c(-c2ccc(N)c(-c3cc4c(N5CCC[C@H](N)C5)ccnc4cn3)n2)c1` [Example 10, (S)-3-(5-amino-6-(4-(3-aminopiperidin-1-yl)-1,7-naphthyridin-6-yl)pyridin-2-yl)-4-fluoro-N-isopropylbenzamide]: the IC50 in test [1] was determined as 3 nM; in test [2], 48 nM; in test [4], 13 nM. For the same compound, the EC50 in test [3] is 3900 nM.
The matching figures for `Nc1ccc(-c2ccccc2F)nc1-c1cc2c(N3CCC[C@H](N)C3)ccnc2cn1` [Example 11, (S)-2-(4-(3-aminopiperidin-1-yl)-1,7-naphthyridin-6-yl)-6-(2-fluorophenyl)pyridin-3-amine]: 2 nM, 59 nM, 3 nM and 5200 nM.
With `Nc1ccc(-c2cc(C(=O)Nc3ccccc3)ccc2F)nc1-c1cc2c(N3CCC[C@H](N)C3)ccnc2cn1` [Example 12, (S)-3-(5-amino-6-(4-(3-aminopiperidin-1-yl)-1,7-naphthyridin-6-yl)pyridin-2-yl)-4-fluoro-N-phenylbenzamide], the figures for the IC50 in test [1], in test [2] and in test [4] were 9 nM, 98 nM and 21 nM, respectively. In addition, the concentration giving a half-maximal response (EC50) in test [3] was found to be 4100 nM.
Taken in the same sequence, the figures for `Nc1ccc(-c2cccs2)nc1-c1cc2c(N3CCC[C@H](N)C3)ccnc2cn1` [Example 13, (S)-2-(4-(3-aminopiperidin-1-yl)-1,7-naphthyridin-6-yl)-6-(thiophen-2-yl)pyridin-3-amine] were 3 nM, 54 nM, 4 nM and 4700 nM.
As to `Nc1ccc(-c2cc(C(=O)NC3CCCCC3)ccc2F)nc1-c1cc2c(N3CCC[C@H](N)C3)ccnc2cn1` [Example 15, (S)-3-(5-amino-6-(4-(3-aminopiperidin-1-yl)-1,7-naphthyridin-6-yl)pyridin-2-yl)-N-cyclohexyl-4-fluorobenzamide], the IC50 in test [1] stood at 9 nM; in test [2], 74 nM; in test [4] it was 22 nM. The same compound gave an EC50 in test [3] of 3100 nM.
For `CN(C)C(=O)c1ccc(F)c(-c2ccc(N)c(-c3cc4c(N5CCC[C@H](N)C5)ccnc4cn3)n2)c1` [Example 16, (S)-3-(5-amino-6-(4-(3-aminopiperidin-1-yl)-1,7-naphthyridin-6-yl)pyridin-2-yl)-4-fluoro-N,N-dimethylbenzamide], the values for the concentration for half-maximal inhibition (IC50) in test [1], in test [2] and in test [4] were 10 nM, 120 nM and 41 nM, respectively. In test [3], this compound returned an EC50 of 4000 nM.
In the case of `Nc1ccc(-c2cccc(F)c2F)nc1-c1cc2c(N3CCC[C@H](N)C3)ccnc2cn1` [Example 18, (S)-2-(4-(3-aminopiperidin-1-yl)-1,7-naphthyridin-6-yl)-6-(2,3-difluorophenyl)pyridin-3-amine], the IC50 is 2 nM in test [1], 71 nM in test [2] and 4 nM in test [4]. Besides, the EC50 in test [3] was found to be 4900 nM.
